Measurements: patent publication US6376469B1, “Crystalline amrubicin hydrochloride” (Sumitomo Pharmaceuticals Company, Limited, priority 1997, dated 2002)

Assay: Preservation stability of crystalline amrubicin hydrochlorides (80° C., 24 hours, HPLC)
Assay type: physicochemical
Settings: for remaining amount (%): crystals kept at 80° C. for 24 hours, measured by high performance liquid chromatography, amount at the starting time defined as 100%, hydrochloride
Method: Preservation stability of crystalline amrubicin hydrochlorides
β-Type crystalline amrubicin hydrochloride obtained in Example 1 and α-type crystalline amrubicin hydrochloride obtained in Reference example 1 were each kept at a temperature of 80° C. for 24 hours. Thereafter, the remaining amount of crystals were measured using high performance liquid chromatography. The amount at the starting time is defined as 100%.

With `CC(=O)[C@]1(N)Cc2c(O)c3c(c(O)c2[C@@H](OC2CC(O)C(O)CO2)C1)C(=O)c1ccccc1C3=O.Cl` (stereo partly drawn) [β-type crystalline, (7S,9S)-9-acetyl-9-amino-7-[(2-deoxy-β-D-erythro-pentapyranosyl)oxy]-7,8,9, 10-tetrahydro-6,11-dihydroxy-5,12-naphthacenedione hydrochloride] the “thermal stability (comparison of crystal forms)” value (conclusion from Table 2, 80° C. for 24 hours) was “higher thermal stability than α-type crystalline amrubicin hydrochloride” and the “remaining amount (%)” value was 100.4%.

With `CC(=O)[C@]1(N)Cc2c(O)c3c(c(O)c2[C@@H](OC2CC(O)C(O)CO2)C1)C(=O)c1ccccc1C3=O.Cl` (stereo partly drawn) [α-type crystalline, (7S,9S)-9-acetyl-9-amino-7-[(2-deoxy-β-D-erythro-pentapyranosyl)oxy]-7,8,9, 10-tetrahydro-6,11-dihydroxy-5,12-naphthacenedione hydrochloride, reference compound] the “remaining amount (%)” value was 92.2%.
